# Like-named read-outs stand apart in the source and are kept apart here.
# Key:
# T-47D = experiment: NCI-60 SRB screen: breast cancer T-47D; type: cell-based, human; settings: T-47D
# UACC-62 = experiment: NCI-60 SRB screen: melanoma UACC-62; type: cell-based, human; settings: UACC-62
# Ovarian Cancer subpanel = experiment: NCI-60 screen, subpanel Ovarian Cancer
# TK-10 = experiment: NCI-60 SRB screen: renal cancer TK-10; type: cell-based, human; settings: TK-10
# HOP-62 = experiment: NCI-60 SRB screen: non-small cell lung cancer HOP-62; type: cell-based, human; settings: HOP-62
# OVCAR-3 = experiment: NCI-60 SRB screen: ovarian cancer OVCAR-3; type: cell-based, human; settings: OVCAR-3
# COLO 205 = experiment: NCI-60 SRB screen: colon cancer COLO 205; type: cell-based, human; settings: COLO 205
# CNS cancer subpanel = experiment: NCI-60 screen, subpanel CNS cancer
# MCF7 = experiment: NCI-60 SRB screen: breast cancer MCF7; type: cell-based; settings: Homo sapiens, 48 h, MCF7
# SK-OV-3 = experiment: NCI-60 SRB screen: ovarian cancer SK-OV-3; type: cell-based, human; settings: SK-OV-3
# MALME-3M = experiment: NCI-60 SRB screen: melanoma MALME-3M; type: cell-based, human; settings: MALME-3M
# CAKI-1 = experiment: NCI-60 SRB screen: renal cancer CAKI-1; type: cell-based, human; settings: CAKI-1
# OVCAR-8 = experiment: NCI-60 SRB screen: ovarian cancer OVCAR-8; type: cell-based, human; settings: OVCAR-8
# MDA-MB-231/ATCC = experiment: NCI-60 SRB screen: breast cancer MDA-MB-231/ATCC; type: cell-based; settings: Homo sapiens, 48 h
# SK-MEL-2 = experiment: NCI-60 SRB screen: melanoma SK-MEL-2; type: cell-based, human; settings: SK-MEL-2
# 786-0 = experiment: NCI-60 SRB screen: renal cancer 786-0; type: cell-based, human; settings: 786-0
# U251 = experiment: NCI-60 SRB screen: CNS cancer U251; type: cell-based; settings: Homo sapiens, U251
# Colon Cancer subpanel = experiment: NCI-60 screen, subpanel Colon Cancer
# NCI-H226 = experiment: NCI-60 SRB screen: non-small cell lung cancer NCI-H226; type: cell-based, human; settings: NCI-H226
# SW-620 = experiment: NCI-60 SRB screen: colon cancer SW-620; type: cell-based; settings: Homo sapiens, 48 h, SW-620
# [1] = tested on: 60 human tumor cell lines; experiment: cells
# SK-MEL-28 = experiment: NCI-60 SRB screen: melanoma SK-MEL-28; type: cell-based, human; settings: SK-MEL-28
# SK-MEL-5 = experiment: NCI-60 SRB screen: melanoma SK-MEL-5; type: cell-based, human; settings: SK-MEL-5
# BT-549 = experiment: NCI-60 SRB screen: breast cancer BT-549; type: cell-based, human; settings: BT-549
# SR = experiment: NCI-60 SRB screen: leukemia SR; type: cell-based; settings: Homo sapiens, 48 h
# Breast cancer subpanel = experiment: NCI-60 screen, subpanel Breast cancer
# HS 578T = experiment: NCI-60 SRB screen: breast cancer HS 578T; type: cell-based, human; settings: HS 578T
# HCT-116 = experiment: NCI-60 SRB screen: colon cancer HCT-116; type: cell-based; settings: Homo sapiens, 48 h, HCT-116
# NCI/ADR-RES = experiment: NCI-60 SRB screen: ovarian cancer NCI/ADR-RES; type: cell-based, human
# Prostate cancer subpanel = experiment: NCI-60 screen, subpanel Prostate cancer
# SNB-75 = experiment: NCI-60 SRB screen: CNS cancer SNB-75; type: cell-based, human; settings: SNB-75
# HCT-15 = experiment: NCI-60 SRB screen: colon cancer HCT-15; type: cell-based, human; settings: HCT-15
# SF-268 = experiment: NCI-60 SRB screen: CNS cancer SF-268; type: cell-based, human; settings: SF-268
# LOX IMVI = experiment: NCI-60 SRB screen: melanoma LOX IMVI; type: cell-based, human
# [2] = Homo sapiens, five concentrations, 48 h, SRB, read-out: GI50
# [3] = single dose 10 µM, read-out: Percentage Cell Growth
# [4] = five concentrations, SRB, read-out: GI50
structure (smiles),measurement,setting,value
C=C(C)[C@@H]1CC[C@]2(C(=O)NCCCN)CC[C@]3(C)[C@H](CC[C@@H]4[C@@]5(C)CCC(=O)C(C)(C)[C@@H]5CC[C@]43C)[C@@H]12 [Compound 10],GI50,"T-47D; Homo sapiens, T47D, five concentrations, 48 h, SRB, read-out: GI50",13.1 µM
same,Percentage Cell Growth,T-47D; single dose 10 µM,−12.76%
same,GI50,UACC-62; [2],27.4 µM
same,Percentage Cell Growth,UACC-62; single dose 10 µM,−22.62%
same,"MID b, average sensitivity of all cell line of particular subpanel",Ovarian Cancer subpanel,24.63 µM
same,"Selectivity, ratio MID a: MID b",Ovarian Cancer subpanel,0.83
same,GI50,TK-10; [2],23.9 µM
same,Percentage Cell Growth,TK-10; single dose 10 µM,−32.23%
same,Percentage Cell Growth,HOP-62; single dose 10 µM,−26.80%
same,GI50,HOP-62; [2],18.3 µM
same,GI50,OVCAR-3; [2],15.7 µM
same,Percentage Cell Growth,OVCAR-3; single dose 10 µM,−45.89%
same,Percentage Cell Growth,COLO 205; single dose 10 µM,7.82%
same,GI50,COLO 205; [2],21 µM
same,"MID b, average sensitivity of all cell line of particular subpanel",CNS cancer subpanel,23.00 µM
same,"Selectivity, ratio MID a: MID b",CNS cancer subpanel,0.89
same,activity at 10 µM,MCF7; [3],-8.46%
same,GI50,MCF7; [4],10.7 µM
same,GI50,SK-OV-3; [2],17.7 µM
same,Percentage Cell Growth,SK-OV-3; single dose 10 µM,−27.22%
same,GI50,MALME-3M; [2],23.3 µM
same,Percentage Cell Growth,MALME-3M; single dose 10 µM,−18.76%
same,Percentage Cell Growth,CAKI-1; single dose 10 µM,−54.52%
same,GI50,CAKI-1; [2],21.9 µM
same,GI50,OVCAR-8; [2],27.7 µM
same,Percentage Cell Growth,OVCAR-8; single dose 10 µM,−3.81%
same,activity at 10 µM,"MDA-MB-231/ATCC; MDA-MB-231/ATCC, single dose 10 µM, read-out: Percentage Cell Growth",-47.8%
same,GI50,"MDA-MB-231/ATCC; MDA-MB-231, MDA-MB-31/ATCC, five concentrations, SRB, read-out: GI50",21.1 µM
same,GI50,SK-MEL-2; [2],27.3 µM
same,Percentage Cell Growth,SK-MEL-2; single dose 10 µM,−24.21%
same,Percentage Cell Growth,786-0; single dose 10 µM,−22.61%
same,GI50,786-0; [2],23.2 µM
same,activity at 10 µM,"U251; U-251, 48 h, single dose 10 µM, read-out: Percentage Cell Growth",-13.8%
same,GI50,"U251; U-251, five concentrations, 48 h, SRB, read-out: GI50",17.7 µM
same,"MID b, average sensitivity of all cell line of particular subpanel",Colon Cancer subpanel,17.82 µM
same,"Selectivity, ratio MID a: MID b",Colon Cancer subpanel,1.15
same,GI50,NCI-H226; [2],21.2 µM
same,Percentage Cell Growth,NCI-H226; single dose 10 µM,36.64%
same,activity at 10 µM,SW-620; [3],-36.2%
same,GI50,SW-620; [4],22.5 µM
same,GI50,[1]; read-out: GI50 ranges against all panels of NCI60,6.95 to 38.9 µM
same,GI50,"[1]; read-out: MID a, average sensitivity of all cell line (GI50-MID)",20.5 µM
same,GI50,SK-MEL-28; [2],22.1 µM
same,Percentage Cell Growth,SK-MEL-28; single dose 10 µM,−31.42%
same,GI50,SK-MEL-5; [2],19.4 µM
same,Percentage Cell Growth,SK-MEL-5; single dose 10 µM,−23.93%
same,Percentage Cell Growth,BT-549; single dose 10 µM,−2.14%
same,GI50,BT-549; [2],23.8 µM
same,activity at 10 µM,SR; [3],23.7%
same,GI50,SR; [4],9.05 µM
same,"MID b, average sensitivity of all cell line of particular subpanel",Breast cancer subpanel,20.30 µM
same,"Selectivity, ratio MID a: MID b",Breast cancer subpanel,1.01
same,Percentage Cell Growth,HS 578T; single dose 10 µM,−4.98%
same,GI50,HS 578T; [2],40.5 µM
same,activity at 10 µM,HCT-116; [3],1.97%
same,GI50,HCT-116; [4],13.9 µM
same,GI50,NCI/ADR-RES; [2],24.8 µM
same,Percentage Cell Growth,NCI/ADR-RES; single dose 10 µM,−9.52%
same,"MID b, average sensitivity of all cell line of particular subpanel",Prostate cancer subpanel,15.05 µM
same,"Selectivity, ratio MID a: MID b",Prostate cancer subpanel,1.36
same,GI50,SNB-75; [2],32.1 µM
same,Percentage Cell Growth,SNB-75; single dose 10 µM,−51.56%
same,Percentage Cell Growth,HCT-15; single dose 10 µM,−22.06%
same,GI50,HCT-15; [2],21.7 µM
same,GI50,SF-268; [2],23 µM
same,Percentage Cell Growth,SF-268; single dose 10 µM,−16.88%
same,GI50,LOX IMVI; [2],25.5 µM
same,Percentage Cell Growth,LOX IMVI; single dose 10 µM,1.37%

# From paper PMC7587962, “Evaluation of Cytotoxicity and α-Glucosidase Inhibitory Activity of Amide and Polyamino-Derivatives of Lupane Triterpenoids” (Molecules, 2020)
